From patent US20240254115A1 (ACONDICIONAMIENTO TARRASENSE, priority 2021, published 2024)

Assays:
[1] = target: T1, human σ1 receptor (Homo sapiens, UniProt Q99720); assay: Human σ1 receptor radioligand assay; conditions: transfected HEK-293 membranes, 5 nM [3H](+)-pentazocine, 37° C. 120 minutes; + may also stand for 1-50% inhibition at 1 or 10 μM; read-out: Binding σ-1 Ki
T1 construct: expressed in transfected cells; host or cells: HEK-293
Protocol: Human σ1 Receptor Radioligand Assay
Transfected HEK-293 membranes (7 μg) were incubated with 5 nM of [^3H](+)-pentazocine in assay buffer containing Tris-HCl 50 mM at pH 8. NBS (non-specific binding) was measured by adding 10 μM haloperidol. The binding of the test compound was measured at either one concentration (% inhibition at 1 or 10 μM) or five different concentrations to determine affinity values (Ki). Plates were incubated at 37° C. for 120 minutes. After the incubation period, the reaction mix was then transferred to MultiScreen HTS, FC plates (Millipore), filtered and plates were washed 3 times with ice-cold 10 mM Tris-HCL (pH7.4). Filters were dried and counted at approximately 40% efficiency in a MicroBeta scintillation counter (Perkin-Elmer) using EcoScint liquid scintillation cocktail.

[2] = target: T2, human σ2/TMEM97 receptor (Homo sapiens, UniProt Q5BJF2); assay: Binding assay to human σ2/TMEM97 receptor; conditions: transfected HEK-293 membranes, 10 nM [3H]-DTG, 25° C. 120 minutes; + may also stand for 1-50% inhibition at 1 or 10 μM; read-out: Binding σ-2 Ki
T2 construct: expressed in transfected cells; host or cells: HEK-293
T2 sequence (Q5BJF2 whole entry): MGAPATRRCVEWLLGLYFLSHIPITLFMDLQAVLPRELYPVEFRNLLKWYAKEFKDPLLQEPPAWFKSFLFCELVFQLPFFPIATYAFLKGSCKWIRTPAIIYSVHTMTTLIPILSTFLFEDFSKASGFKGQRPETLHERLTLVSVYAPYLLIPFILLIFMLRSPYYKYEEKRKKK
Protocol: Binding Assay to Human σ2/TMEM97 Receptor
Transfected HEK-293 membranes (15 μg) were incubated with 10 nM [^3H]-1,3-Di-o-tolylguanidine (DTG) in assay buffer containing Tris-HCl 50 mM at pH 8.0. NSB (non-specific binding) was measured by adding 10 μM haloperidol. The binding of the test compound was measured at either one concentration (% inhibition at 1 or 10 μM) or five different concentrations to determine affinity values (Ki). Plates were incubated at 25° C. for 120 minutes. After the incubation period, the reaction mix was transferred to MultiScreen HTS, FC plates (Millipore), filtered and washed 3 times with ice-cold 10 mM Tris-HCL (pH 8.0). Filters were dried and counted at approximately 40% efficiency in a MicroBeta scintillation counter (Perkin-Elmer) using EcoScint liquid scintillation cocktail.

T1 sequence (Q99720 whole entry): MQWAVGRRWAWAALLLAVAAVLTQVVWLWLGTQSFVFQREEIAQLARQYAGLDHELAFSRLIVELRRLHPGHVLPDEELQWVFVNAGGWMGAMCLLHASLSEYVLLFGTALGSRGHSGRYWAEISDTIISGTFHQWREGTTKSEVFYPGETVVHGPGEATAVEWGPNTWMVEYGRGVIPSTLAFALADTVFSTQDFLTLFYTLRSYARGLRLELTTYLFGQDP

SMILES | Ki [1] | Ki [2]
CN(Cc1ccccc1)[C@H]1CCN(S(=O)(=O)c2ccc(N3CCOCC3)nc2)C1 [Example 17, (S)-N-Benzyl-N-methyl-1-((6-morpholinopyridin-3-yl)sulfonyl)pyrrolidin-3-amine] | < 0.1 µM | > 1 µM
CN(Cc1ccccc1)C1CCN(S(=O)(=O)c2ccc(N3CCCC3=O)nc2)CC1 [Example 148, 1-(5-((4-(Benzyl(methyl)ami-no)piperidin-1-yl)sulfonyl)pyridin-2-yl)pyrrolidin-2-one] | 0.1 to 0.5 µM | < 0.1 µM
O=S(=O)(N[C@H]1CC[C@H](NCc2ccncc2)CC1)c1ccc(N2CCOCC2)nc1 [Example 55, 6-Morpholino-N-((1r,4r)-4-((pyridin-4-ylmethyl)amino)cyclohexyl)pyridine-3-sulfonamide] | > 1 µM | > 1 µM
CC(C)(C)CCN1CCC2(CC1)CCN(S(=O)(=O)c1ccc(N3CCOCC3=O)nc1)CC2 [Example 131, 4-(5-((9-(3,3-Dimethylbutyl)-3,9-diazaspiro[5.5]undecan-3-yl)sulfonyl)pyridin-2-yl)morpholin-3-one] | 0.1 to 0.5 µM | < 0.1 µM
O=S(=O)(N[C@H]1CCN(Cc2cccc(F)c2)C1)c1ccc(N2CCOCC2)nc1 [Example 35, (S)—N-(1-(3-Fluorobenzyl)pyrrolidin-3-yl)-6-morpholinopyridine-3-sulfonamide] | < 0.1 µM | > 1 µM
N#Cc1ccc(CN2CCC3(CCCN(S(=O)(=O)c4ccc(N5CCOCC5)nc4)C3)CC2)cc1F [Example 62, 2-Fluoro-4-((2-((6-morpholinopyridin-3-yl)sulfonyl)-2,9-diazaspiro[5.5]undecan-9-yl)methyl)benzonitrile] | 0.1 to 0.5 µM | < 0.1 µM
N#Cc1cc(CN2CCC3(CC2)CCN(S(=O)(=O)c2ccc(N4CCOC4=O)nc2)C3)ccc1F [Example 165, 2-Fluoro-5-((2-((6-(2-oxooxazolidin-3-yl)pyridin-3-yl)sulfonyl)-2,8-diazaspiro[4.5]decan-8-yl)methyl)benzonitrile] | > 1 µM | 0.1 to 0.5 µM
CN(Cc1ccccc1F)C1CCN(S(=O)(=O)c2ccc(N3CCC(F)(F)CC3)nc2)CC1 [Example 172, 1-((6-(4,4-Difluoropiperidin-1-yl)pyridin-3-yl)sulfonyl)-N-(2-fluorobenzyl)-N-methylpiperidin-4-amine] | < 0.1 µM | < 0.1 µM
CC(C)(C)CCN1CCC2(CC1)CCN(S(=O)(=O)c1ccc(N3CCOC3=O)nc1)CC2 [Example 134, 3-(5-((9-(3,3-Dimethylbutyl)-3,9-diazaspiro[5.5]undecan-3-yl)sulfonyl)pyridin-2-yl)oxazolidin-2-one] | 0.1 to 0.5 µM | < 0.1 µM
CN(Cc1ccccc1)[C@H]1CC[C@@H](NS(=O)(=O)c2ccc(N3CCOCC3)nc2)CC1 [Example 19, N-((1s,4s)-4-(Benzyl(methyl)amino)cyclohexyl)-6-morpholinopyridine-3-sulfonamide] | > 1 µM | < 0.1 µM
Cc1ccc(S(=O)(=O)N2CCC3(CCN(CCC(C)(C)C)CC3)CC2)cn1 [Example 110, 3-(3,3-Dimethylbutyl)-9-((6-methylpyridin-3-yl)sulfonyl)-3,9-diazaspiro[5.5]undecane] | < 0.1 µM | < 0.1 µM
CN(Cc1ccccc1)[C@H]1CC[C@H](NS(=O)(=O)c2ccc(N3CCOCC3)nc2)CC1 [Example 18, N-((1r,4r)-4-(Benzyl(methyl)amino)cyclohexyl)-6-morpholinopyridine-3-sulfonamide] | > 1 µM | < 0.1 µM
CC(C)(C)CCN1CCC2(CC1)CCN(S(=O)(=O)c1ccc(N3CCOCC3)nc1)CC2 [Example 29, 4-(5-((9-(3,3-Dimethylbutyl)-3,9-diazaspiro[5.5]undecan-3-yl)sulfonyl)pyridin-2-yl)morpholine] | 0.1 to 0.5 µM | < 0.1 µM
N#Cc1cccc(CN2CCC(NS(=O)(=O)c3ccc(N4CCOCC4)nc3)CC2)c1 [Example 9, N-(1-(3-Cyanobenzyl)piperidin-4-yl)-6-morpholinopyridine-3-sulfonamide] | 0.5 to 1 µM | > 1 µM
CC(=O)N(C)c1ccc(S(=O)(=O)N2CCCC3(CCN(CCC(C)(C)C)CC3)C2)cn1 [Example 102, N-(5-((9-(3,3-Dimethylbutyl)-2,9-diazaspiro[5.5]undecan-2-yl)sulfonyl)pyridin-2-yl)-N-methylacetamide] | 0.1 to 0.5 µM | < 0.1 µM

Results, then the compound that gave them:

Ki [1] | Ki [2] | SMILES
< 0.1 µM | > 1 µM | O=S(=O)(N[C@H]1CCN(Cc2ccccc2)C1)c1cnc(N2CCOCC2)c(F)c1 [Example 25, (S)-N-(1-Benzylpyrrolidin-3-yl)-5-fluoro-6-morpholinopyridine-3-sulfonamide]
0.1 to 0.5 µM | < 0.1 µM | CNc1ccc(S(=O)(=O)N2CCCC3(CCN(CCC(C)(C)C)CC3)C2)cn1 [Example 94, 5-((9-(3,3-Dimethylbutyl)-2,9-diazaspiro[5.5]undecan-2-yl)sulfonyl)-N-methylpyridin-2-amine]
< 0.1 µM | < 0.1 µM | O=S(=O)(c1ccc(N2CCC(F)(F)CC2)nc1)N1CCCC2(CCN(CC3CCOCC3)CC2)C1 [Example 101, 2-((6-(4,4-Difluoropiperidin-1-yl)pyridin-3-yl)sulfonyl)-9-((tetrahydro-2H-pyran-4-yl)methyl)-2,9-diazaspiro[5.5]undecane]
< 0.1 µM | 0.5 to 1 µM | O=S(=O)(N[C@@H]1CCN(Cc2ccccc2)C1)c1cnc(N2CCOCC2)c(F)c1 [Example 24, (R)-N-(1-Benzylpyrrolidin-3-yl)-5-fluoro-6-morpholinopyridine-3-sulfonamide]
< 0.1 µM | > 1 µM | O=S(=O)(NC1CCN(Cc2ccc(Cl)cc2)CC1)c1ccc(N2CCOCC2)nc1 [Example 10, N-(1-(4-Chlorobenzyl)piperidin-4-yl)-6-morpholinopyridine-3-sulfonamide]
> 1 µM | < 0.1 µM | O=S(=O)(c1ccc(N2CCC(F)(F)CC2)nc1)N1CCC(NCc2ccccc2)CC1 [Example 170]
0.1 to 0.5 µM | < 0.1 µM | CCC(=O)N(C)c1ccc(S(=O)(=O)N2CCC3(CCN(CCC(C)(C)C)CC3)CC2)cn1 [Example 105, N-(5-((9-(3,3-Dimethylbutyl)-3,9-diazaspiro[5.5]undecan-3-yl)sulfonyl)pyridin-2-yl)-N-methylpropionamide]
> 1 µM | > 1 µM | N#Cc1cc(CN2CCCC3(CCN(S(=O)(=O)c4ccc(N5CCOC5=O)nc4)CC3)C2)ccc1F [Example 152, 2-Fluoro-5-((9-((6-(2-oxooxazolidin-3-yl)pyridin-3-yl)sulfonyl)-2,9-diazaspiro[5.5]undecan-2-yl)methyl)benzonitrile]
> 1 µM | > 1 µM | CC(C)N([C@@H]1CCN(Cc2ccc(C#N)cc2)C1)S(=O)(=O)c1ccc(N2CCOCC2)nc1 [Example 49, (R)—N-(1-(4-Cyanobenzyl)pyrrolidin-3-yl)-N-isopropyl-6-morpholinopyridine-3-sulfonamide]
> 1 µM | < 0.1 µM | O=C1OCCN1c1ccc(S(=O)(=O)N2CCC3(CCN(Cc4cc(F)ccc4F)CC3)C2)cn1 [Example 162, 3-(5-((8-(2,5-Difluorobenzyl)-2,8-diazaspiro[4.5]decan-2-yl)sulfonyl)pyridin-2-yl)oxazolidin-2-one]
